Measured values: patent US9862730B2, “Imidazothiadiazole derivatives as protease activated receptor 4 (PAR4) inhibitors for treating platelet aggregation” (BRISTOL-MYERS SQUIBB COMPANY, priority 2012, dated 2018)

Target: PAR4 (Homo sapiens (Human), UniProt Q96RI0)
Assay: FLIPR assay in PAR4-expressing HEK293 cells (PAR4 antagonist activity, calcium mobilization)
Format: cell-based
Settings: FLIPR assay as described in Example A
From the text: The FLIPR assay is an exemplary in vitro assay for measuring the activity of the PAR4 antagonists of the present invention. In this assay, intracellular calcium mobilization is induced in PAR4 expressing cells by a PAR4 agonist and calcium mobilization is monitored. See, e.g., Example A.
HEK293 cells stably expressing PAR4 were generated by a standard method of transfection of human […] cDNA expression vector or by RAGE technology from Athersys Inc. (Cleveland, Ohio) and selected based on PAR4 protein expression of mRNA expression. […] These cells express endogenous PAR1 and can elicit calcium signal upon stimulation with PAR1 agonist peptide.
Counter screens for agonist activity and PAR1 antagonist activity were also performed. Briefly, HEK293 EBNA PAR4 clone 20664.1J cells were plated 24 hrs. prior to experiment in 384 well, Poly-D-Lysine coated, black, clear bottom plates (Greiner Bio-One, Monroe, N.C.). Cells were plated at 20,000 cells/well in 20 μl growth medium and incubated at 37° C. with 5% CO2 overnight. At time of assay, media was replaced with 40 μl 1× Hank's Buffered Saline Solution (HBSS) (with 10 mM HEPES) and 20 μl test compound also diluted in 1×HBSS buffer was added at various concentrations and 0.67% DMSO final concentration on the FDSS for agonist measurement. The cells were then incubated for 30 minutes at room temperature followed by addition of 20 μl of agonist peptide for antagonist measurement on the FDSS.
As indicated above, the FLIPR assay, an in vitro assay, measures the PAR4 antagonist activity of compounds tested as described in Example A.

Chain of PAR4 (Q96RI0 18-385): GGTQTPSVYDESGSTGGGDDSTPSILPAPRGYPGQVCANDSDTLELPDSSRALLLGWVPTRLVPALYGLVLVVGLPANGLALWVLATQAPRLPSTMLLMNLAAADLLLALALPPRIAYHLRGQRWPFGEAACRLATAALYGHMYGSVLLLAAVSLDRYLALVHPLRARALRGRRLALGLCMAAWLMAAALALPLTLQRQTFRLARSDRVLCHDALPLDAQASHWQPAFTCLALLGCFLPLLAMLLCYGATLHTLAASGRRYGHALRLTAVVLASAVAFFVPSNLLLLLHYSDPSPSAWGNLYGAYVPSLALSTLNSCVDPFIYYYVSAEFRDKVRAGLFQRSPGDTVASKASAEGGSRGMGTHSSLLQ

| IC50 [nM] | SMILES |
| --- | --- |
| 114 | COc1cc2oc(-c3cn4nc(C(C)F)sc4n3)cc2cc1Cl (stereo in doubt) [270A] |
| 9.53 | COc1cc2oc(-c3cn4nc([C@H](C)F)sc4n3)cc2cc1Cl [270-1] |
| 3.37 | COc1cc2oc(-c3cn4nc([C@H](C)F)sc4n3)cc2cc1Cl [270B] |
| 14 | CSc1nn2cc(-c3cc4ccccc4o3)nc2s1 [Example 1, 6-(Benzofuran-2-yl)-2-(methylthio)imidazo[2,1-b][1,3,4]thiadiazole] |
| 12.9 | CSc1nn2cc(-c3nc4ccccc4s3)nc2s1 [Example 4, 2-(2-(Methylthio)imidazo[2,1-b][1,3,4]thiadiazol-6-yl)benzo[d]thiazole] |
| 618 | COc1cccc2sc(-c3cn4nc(SC)sc4n3)nc12 [Example 6, 4-Methoxy-2-(2-(methylthio)imidazo[2,1-b][1,3,4]thiadiazol-6-yl)benzo[d]thiazole] |
| 224 | COc1nn2cc(-c3cc4cccc(OC)c4o3)nc2s1 [Example 9, 2-Methoxy-6-(7-methoxybenzofuran-2-yl)imidazo[2,1-b][1,3,4]thiadiazole] |
| 147 | CCOc1cccc2cc(-c3cn4nc(CC)sc4n3)oc12 [Example 13, 6-(7-Ethoxybenzofuran-2-yl)-2-ethylimidazo[2,1-b][1,3,4]thiadiazole] |
| 3.53 | COc1ccc2cc(-c3cn4nc(SC)sc4n3)oc2c1 [Example 20] |
| 22.1 | CSc1nn2cc(-c3cc4ccc(C)cc4o3)nc2s1 [Example 21] |
| 144 | CSc1nn2cc(-c3cc4cccc(Cl)c4o3)nc2s1 [Example 23] |
| 696 | COc1ccc2oc(-c3cn4nc(SC)sc4n3)c(C)c2c1 [Example 24] |
| 2.81 | COc1ccc2c(C)c(-c3cn4nc(SC)sc4n3)oc2c1OC [Example 25] |
| 7.65 | COc1nn2cc(-c3cc4cccc(OC)c4o3)nc2s1 [Example 35] |
| 8.51 | CCc1nn2cc(-c3cc4cccc(OC)c4o3)nc2s1 [Example 37] |
| 122 | CCc1nn2cc(-c3nc4ccc(Cl)cc4o3)nc2s1 [Example 40] |
| 18.6 | Cc1nn2cc(-c3cc4ccccc4o3)nc2s1 [Example 41] |
| 462 | CCc1nn2cc(-c3nc4c(C)cccc4o3)nc2s1 [Example 42] |
| 135 | CCc1nn2cc(-c3nc4cc(Cl)ccc4o3)nc2s1 [Example 45] |
| 565 | CCc1nn2cc(-c3nc4cc(C)c(C)cc4o3)nc2s1 [Example 46] |
| 68 | CCc1nn2cc(-c3cc4ccccc4o3)nc2s1 [Example 47] |
| 361 | CCc1nn2cc(-c3nc4cc(F)ccc4o3)nc2s1 [Example 49] |
| 394 | CCCOc1ccc2nc(-c3cn4nc(CC)sc4n3)oc2c1 [Example 51] |
| 149 | CCc1nn2cc(-c3cc4cccc(OCC#N)c4o3)nc2s1 [Example 53] |
| 601 | CCCOc1cccc2cc(-c3cn4nc(CC)sc4n3)oc12 [Example 56] |
| 565 | CCc1nn2cc(-c3nc4cc(C)cc(C)c4o3)nc2s1 [Example 58] |
| 288 | CCc1nn2cc(-c3cc4cccc(O)c4o3)nc2s1 [Example 59] |

| IC50 [nM] | SMILES |
| --- | --- |
| 623 | CCOC(=O)CCCOc1cccc2cc(-c3cn4nc(CC)sc4n3)oc12 [Example 60] |
| 1650 | CCc1nn2cc(-c3cc4cc(OC)ccc4o3)nc2s1 [Example 61] |
| 587 | CCOC(=O)COc1cccc2cc(-c3cn4nc(CC)sc4n3)oc12 [Example 62] |
| 201 | c1ccc2oc(-c3cn4nc(C5CC5)sc4n3)cc2c1 [Example 63] |
| 1590 | CCCCOc1cccc2cc(-c3cn4nc(CC)sc4n3)oc12 [Example 64] |
| 1470 | CCOC(=O)CCCCCOc1cccc2cc(-c3cn4nc(CC)sc4n3)oc12 [Example 65] |
| 2620 | CCc1nn2cc(-c3cc4cccc(OCCCC#N)c4o3)nc2s1 [Example 66] |
| 103 | CCc1nn2cc(-c3nc4ccc(OCc5ccccc5)cc4o3)nc2s1 [Example 67] |
| 407 | CNc1nn2cc(-c3cc4ccccc4o3)nc2s1 [Example 69] |
| 400 | CSc1nn2cc(-c3cc4cccc(OC(F)(F)F)c4o3)nc2s1 [Example 70] |
| 1.22 | COc1ccc2cc(-c3cn4nc(OC)sc4n3)oc2c1 [Example 71] |
| 681 | CCc1nn2cc(-c3nc4ccc(OCC5CC5)cc4o3)nc2s1 [Example 74] |
| 294 | CCc1nn2cc(-c3nc4ccc(OC5CCC5)cc4o3)nc2s1 [Example 75] |
| 3400 | CCc1nn2cc(-c3nc4ccc(OCC5CCCCC5)cc4o3)nc2s1 [Example 76] |
| 1370 | CCc1nn2cc(-c3nc4ccc(OCCC(C)C)cc4o3)nc2s1 [Example 77] |
| 576 | CCc1nn2cc(-c3nc4ccc(OCCCc5ccccc5)cc4o3)nc2s1 [Example 78] |
| 801 | CCCCOc1ccc2nc(-c3cn4nc(CC)sc4n3)oc2c1 [Example 79] |
| 695 | CCc1nn2cc(-c3nc4ccc(OC5CCCCC5)cc4o3)nc2s1 [Example 80] |
| 507 | CCc1nn2cc(-c3nc4ccc(OCc5ccccc5Cl)cc4o3)nc2s1 [Example 81] |
| 66 | CCc1nn2cc(-c3nc4ccc(OCc5cccc(Cl)c5)cc4o3)nc2s1 [Example 82] |
| 1010 | CCc1nn2cc(-c3nc4ccc(OCc5ccc(Cl)cc5)cc4o3)nc2s1 [Example 83] |
| 101 | CCc1nn2cc(-c3nc4ccc(OCc5ccc(OC)cc5)cc4o3)nc2s1 [Example 84] |
| 392 | CCc1nn2cc(-c3nc4ccc(OCC(C)C)cc4o3)nc2s1 [Example 85] |
| 1210 | CCc1nn2cc(-c3nc4ccc(OCc5ccncc5)cc4o3)nc2s1 [Example 86] |
| 450 | CCc1nn2cc(-c3nc4ccc(OC(C)C)cc4o3)nc2s1 [Example 87] |
| 28.2 | COc1nn2cc(-c3cc4cccc(C)c4o3)nc2s1 [Example 89] |
| 4.7 | COc1nn2cc(-c3cc4ccc(C)cc4o3)nc2s1 [Example 90] |

| IC50 [nM] | SMILES |
| --- | --- |
| 19.1 | COc1nn2cc(-c3cc4cc(Cl)ccc4o3)nc2s1 [Example 91] |
| 13 | CCc1cccc2cc(-c3cn4nc(OC)sc4n3)oc12 [Example 92] |
| 222 | COc1ccc2oc(-c3cn4nc(OC)sc4n3)cc2c1 [Example 93] |
| 3.58 | COc1nn2cc(-c3cc4ccc(Cl)cc4o3)nc2s1 [Example 94] |
| 6.89 | COc1nn2cc(-c3cc4cc(C)ccc4o3)nc2s1 [Example 95] |
| 7.92 | COc1nn2cc(-c3cc4ccc(F)cc4o3)nc2s1 [Example 96] |
| 3.48 | COc1nn2cc(-c3cc4cc(F)ccc4o3)nc2s1 [Example 97] |
| 187 | COc1nn2cc(-c3cc4cc(OC(F)(F)F)ccc4o3)nc2s1 [Example 98] |
| 71.4 | COc1nn2cc(-c3cc4cc([N+](=O)[O-])ccc4o3)nc2s1 [Example 100] |
| 10.7 | COc1nn2cc(-c3cc4cccc(C(C)C)c4o3)nc2s1 [Example 101] |
| 542 | COc1nn2cc(-c3cc4ccc(C)c(C)c4o3)nc2s1 [Example 102] |
| 10.7 | COc1nn2cc(-c3cc4c(OC)ccc(OC)c4o3)nc2s1 [Example 103] |
| 26.2 | COc1nn2cc(-c3cc4ccc(OCc5ccccc5)cc4o3)nc2s1 [Example 104] |
| 11.4 | COc1ccc(OC)c2oc(-c3cn4nc(SC)sc4n3)cc12 [Example 105] |
| 13.9 | COc1ccc2c(C)c(-c3cn4nc(SC)sc4n3)oc2c1 [Example 106] |
| 339 | CSc1nn2cc(-c3cc4ccc(C)c(C)c4o3)nc2s1 [Example 107] |
| 461 | COc1nn2cc(-c3cc4ccc(O)cc4o3)nc2s1 [Example 108] |
| 3.1 | COc1nn2cc(-c3cc4c(Cl)cccc4o3)nc2s1 [Example 109] |
| 213 | CSc1nn2cc(-c3nc4ccccc4o3)nc2s1 [Example 110, 2-(2-(Methylthio)imidazo[2,1-b][1,3,4]thiadiazol-6-yl)benzo[d]oxazole] |
| 140 | COc1nn2cc(-c3nc4ccccc4o3)nc2s1 [Example 111, 2-(2-Methoxyimidazo[2,1-b][1,3,4]thiadiazol-6-yl)benzo[d]oxazole] |
| 382 | Cc1ccc2oc(-c3cn4nc(C)sc4n3)nc2c1 [Example 112, 5-Methyl-2-(2-methylimidazo[2,1-b][1,3,4]thiadiazol-6-yl)benzo[d]oxazole] |
| 15.2 | CSc1nn2cc(-c3nc4cc(C)ccc4o3)nc2s1 [Example 113] |
| 206 | CSc1nn2cc(-c3nc4ccc(OCCN5CCCC5)cc4o3)nc2s1 [Example 114, 2-(2-(Methylthio)imidazo[2,1-b][1,3,4]thiadiazol-6-yl)-6-(2-(pyrrolidin-1-yl)ethoxy)benzo[d]oxazole] |
| 74.9 | CSc1nn2cc(-c3nc4ccc(OCc5ccccc5)cc4o3)nc2s1 [Example 115, 6-(Benzyloxy)-2-(2-(methylthio)imidazo[2,1-b][1,3,4]thiadiazol-6-yl)benzo[d]oxazole] |
| 6.63 | COc1ccc2nc(-c3cn4nc(SC)sc4n3)oc2c1 [Example 116, 6-Methoxy-2-(2-(methylthio)imidazo[2,1-b][1,3,4]thiadiazol-6-yl)benzo[d]oxazole] |
